Laboratory results taken from patent US20140023611A1 (priority 2010, published 2014).

Experiments:
rat NaP2b (SLC34A2) = biological target: T1, rat NaP2b (SLC34A2) (Rattus norvegicus, UniProt Q9JJ09); assay: Inhibition of NaP2b-mediated Pi (33P) uptake in transfected HEK293 cells, rat NaP2b; format: cell-based; conditions: 33P Pi uptake, 0.1 mM phosphate, value given as pIC50 range
T1 construct: host or cells: HEK293
T1 sequence (Q9JJ09 1-695): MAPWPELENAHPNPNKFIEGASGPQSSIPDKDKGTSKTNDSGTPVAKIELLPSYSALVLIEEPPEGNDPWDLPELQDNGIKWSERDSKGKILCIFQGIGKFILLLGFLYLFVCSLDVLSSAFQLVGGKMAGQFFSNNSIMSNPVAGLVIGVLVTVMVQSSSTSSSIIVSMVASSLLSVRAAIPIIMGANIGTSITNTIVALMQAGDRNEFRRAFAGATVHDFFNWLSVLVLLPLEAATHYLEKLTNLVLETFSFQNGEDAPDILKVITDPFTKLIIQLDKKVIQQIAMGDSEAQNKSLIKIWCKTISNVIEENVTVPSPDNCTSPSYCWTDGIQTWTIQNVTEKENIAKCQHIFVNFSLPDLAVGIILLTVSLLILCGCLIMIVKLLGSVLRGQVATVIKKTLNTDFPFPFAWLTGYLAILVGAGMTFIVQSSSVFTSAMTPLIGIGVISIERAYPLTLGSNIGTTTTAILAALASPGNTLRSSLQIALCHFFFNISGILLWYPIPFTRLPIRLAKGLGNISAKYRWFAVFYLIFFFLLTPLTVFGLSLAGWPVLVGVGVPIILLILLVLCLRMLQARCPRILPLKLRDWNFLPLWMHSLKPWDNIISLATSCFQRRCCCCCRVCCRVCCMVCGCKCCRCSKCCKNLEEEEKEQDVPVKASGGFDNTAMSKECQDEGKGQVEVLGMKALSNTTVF
Summary of the method: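 HEK293 cells were transiently transfected with NaP2b cDNA using Lipofectamine and grown near confluence. Compounds were tested at twelve concentrations from 0.1 nM to 30 uM in duplicate, and 33P-phosphate uptake was counted by scintillation after lysis. Results are expressed as pIC50.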

[1] = Determination of compound Cmax and AUC after oral gavage (plasma LC-MS/MS); format: in vivo, Sprague-Dawley rats; conditions: Sprague-Dawley, rat, plasma, po, Structure (I) examples, Table 15, actual oral dose 3-15 mg/kg, plasma 0.5-4 h
Protocol: (§1) Sprague-Dawley rats were orally gavaged with test article at a nominal dose of 2.5 or 10 mg/kg and blood was collected at 0.5, 1, 2 and 4 h. Blood samples were processed to plasma using K2EDTA as an anticoaglulant. Plasma samples were treated with acetonitrile containing an internal standard, precipitated proteins removed by centrifugation. Supernatants were analyzed by LC-MS/MS and compound concentrations were determined by interpolation from a standard curve prepared in plasma. All compounds were orally dosed at the dosage shown, and pharmacokinetic parameters determined.
as §1, with “interpolated” for “interpolation”
as §1, with “interpolated” for “interpolation”

Row | IC50 (rat NaP2b (SLC34A2)) [µM] | AUC [1] [ng·h/mL] | Cmax [1] [ng/mL] | SMILES
1 | 1 to 7.94 | < 30 | < 10 | CN(CCOCCOCCOCCC(=O)O)C(=O)c1cccc(C(=O)Nc2ccc(N3CCCCC3)cc2-c2cc(C(=O)N[C@H]3CCCc4ccccc43)ccn2)c1 [Example 249, 3-[2-(2-{2-[N-methyl-1-(3-{[4-(piperidin-1-yl)-2-(4-{[(1S)-1,2,3,4-tetrahydronaphthalen-1-yl]carbamoyl}pyridin-2-yl)phenyl]carbamoyl}phenyl)formamido]ethoxy}ethoxy)ethoxy]propanoic acid]
2 | 1 to 7.94 | > 50 | > 50 | O=C(O)CCCNC(=O)Cc1cccc(SCc2cccc(C(=O)Nc3ccc(N4CCCCC4)cc3-c3cc(C(=O)NCc4cccc(C(F)(F)F)c4)ccn3)c2)c1 [Example 141]
3 | 1 to 7.94 | < 30 | < 10 | COCCN(C)C(=O)N1CCN(CCN(C)C(=O)c2cccc(C(=O)Nc3ccc(N4CCCCC4)cc3-c3cc(C(=O)NCc4cccc(C(F)(F)F)c4)ccn3)c2)CC1 [Example 211, N1-(2-(4-((2-methoxyethyl)(methyl)carbamoyl)piperazin-1-yl)ethyl)-N1-methyl-N3-(4-(piperidin-1-yl)-2-(4-(3-(trifluoromethyl)benzylcarbamoyl)pyridin-2-yl)phenyl)isophthalamide]
4 | 1 to 7.94 | < 30 | < 10 | CN(C)C(=O)C1CCN(CCN(C)C(=O)c2cccc(C(=O)Nc3ccc(N4CCCCC4)cc3-c3cc(C(=O)N[C@H]4CCCc5ccccc54)ccn3)c2)CC1 [Example 218, (S)—N1-(2-(4-(dimethylcarbamoyl)piperidin-1-yl)ethyl)-N1-methyl-N3-(4-(piperidin-1-yl)-2-(4-(1,2,3,4-tetrahydronaphthalen-1-ylcarbamoyl)pyridin-2-yl)phenyl)isophthalamide]
